Results on one compound are retold here after article PMC9182490, “N-Glucosylation in Corynebacterium glutamicum with YdhE from Bacillus lichenformis” (Molecules, 2022).

The test concerns the target T1, YdhE (CO-YdhE) (Bacillus licheniformis, UniProt Q62XT4).
T1 construct: 45 kDa band on SDS-PAGE; not purified
T1 sequence (Q62XT4 1-404): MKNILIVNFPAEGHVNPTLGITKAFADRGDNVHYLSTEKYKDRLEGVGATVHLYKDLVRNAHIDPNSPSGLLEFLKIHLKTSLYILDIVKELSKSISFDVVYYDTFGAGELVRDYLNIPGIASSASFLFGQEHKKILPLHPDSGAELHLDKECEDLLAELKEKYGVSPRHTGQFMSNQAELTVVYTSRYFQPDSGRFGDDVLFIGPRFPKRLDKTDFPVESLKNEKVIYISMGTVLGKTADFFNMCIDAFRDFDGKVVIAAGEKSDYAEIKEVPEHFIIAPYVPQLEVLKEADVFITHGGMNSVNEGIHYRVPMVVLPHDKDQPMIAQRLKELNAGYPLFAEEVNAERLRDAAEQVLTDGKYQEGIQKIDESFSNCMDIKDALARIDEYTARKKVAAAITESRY
Briefly: whole-cell N-glucosylation, HPLC-PDA and HR-QTOF ESI/MS, product NMR. The conditions noted are these: C. glutamicum harboring pSKSM-YdhE; glucose as sugar source, UDP-sugar donor made by host; 2 mM substrate, 37 °C; product is N-beta-D-glucopyranoside. In kind it is cell-based, Corynebacterium glutamicum.

Each structure is given as a SMILES string.

Take `CCCCOC(=O)c1ccc(N)cc1` [compound 2, butyl-4-aminobenzoate]: the “whole-cell N-glucosylation, HPLC-PDA and HR-QTOF ESI/MS, product NMR” value is recorded as “confirmed the glucosylation of butyl-4-aminobenzoate”.
